{
  "source": "paper PMC12250129",
  "about": "“Exploring the Therapeutic Potential of ^177Lu-PSMA-617 in a Mouse Model of Prostate Cancer Bone Metastases” (International Journal of Molecular Sciences, 2025)",
  "key": {"PSMA-negative PC-3 cells": {"system": "PSMA-negative PC-3 cells", "assay": "Cell surface binding and internalization, PC-3 cells", "type": "cell-based, human", "description": "Cell surface binding and internalization experiments were performed with ^177Lu-PSMA-617 using PSMA-positive LNCaP cells and PSMA-negative PC-3 cells in order to determine if the uptake of ^177Lu-PSMA-617 was PSMA-specific. For this purpose, cells were seeded in 24-well plates (10^5 cells in 1 mL of the RPMI medium/well), allowing adhesion and growth overnight at 37 °C. After the removal of the supernatant, cells were washed once with PBS prior to the addition of the RPMI medium without supplements, followed by the addition of the radiolabeled ^177Lu-PSMA-617 (in MBq/nmol) to each well. The well plates were incubated at 37 °C for 1, 2, and 4 h, respectively. The cells were washed three times with ice-cold PBS to determine the total uptake of ^177Lu-PSMA-617. The internalized fraction of ^177Lu-PSMA-617 was determined in cells which were washed with ice-cold PBS, then incubated for 10 min with acidic stripping buffer (50 mM glycine, pH 2.8) followed by an additional washing step with ice-cold PBS. Cell samples were lysed by the addition of NaOH (1 N, 1 mL) to each well. The samples of the cell suspensions were measured in a γ-counter (PerkinElmer, Waltham, MA, USA)."}, "[1]": {"system": "bone metastases of LNCaP-luc prostate cancer", "assay": "Biodistribution in mice with bone metastases of LNCaP-luc prostate cancer (gamma counter)", "type": "in vivo, mouse", "description": "An in vivo imaging system was used for bioluminescence imaging (BLI) to visualize ASID mice with bone metastases of LNCaP-luc prostate cancer before the administration of ^177Lu-PSMA-617 (Figure 4A). Subsequently, ^177Lu-PSMA-617 (~37 MBq of Lu-177) was administered intravenously to mice with bone metastases, and NanoSPECT/CT imaging was performed at 4, 24, and 48 h post-administration (Figure 4B). Additionally, the mice were sacrificed, and their organs and tissues were extracted for quantitative analysis using a gamma counter at 1, 4, 24, and 48 h after injection (Figure 4C).\nLNCaP-luc cells were harvested from culture and resuspended to 2 × 10^7 cells/mL in PBS. The cells were combined with an equal volume of Matrigel (BD Biosciences, Bedford, MA, USA) such that 5 × 10^5 cells were prepared for injection into the right tibia of anesthetized (inhaled anesthetic of 1–2% isoflurane) ASID mice. Intratibial injections were performed using a 29-gauge, 0.5-inch needle inserted through the tibial plateau of the flexed knee as described previously. The tumor was imaged, detected, and measured using a Bruker Small Animal Optical Imaging System (In Vivo Xtreme; Billerica, MA, USA). Mice were anesthetized with a mixture of oxygen and isoflurane, then intraperitoneally injected with 100 μL of D-luciferin (Xenogen; 30 mg/mL in PBS).\nMice received an intravenous injection of ^177Lu-PSMA-617 (equivalent to 37 MBq of ^177Lu) at 45 days after tumor implantation. The NanoSPECT/CT (Mediso Medical Imaging Systems, Arlington, VA, USA) was used to image in vivo. After the administration of ^177Lu-PSMA-617, mice inhaled an anesthetic containing 1–2% isoflurane during imaging acquisition. SPECT and X-ray CT images were obtained at 1, 4, 24, and 48 h after injection. NanoSPECT imaging was acquired using nine multipinhole gamma detectors and high-resolution collimators. The energy window was set to […] ± 10%; the image size was set to 256 × 256, and the field of view of 60 mm × 100 mm was used. Mice received an intravenous injection of ^177Lu-PSMA-617 (equivalent to 37 MBq of ^177Lu) at 45 days after tumor implantation. The distribution of ^177Lu-PSMA-617 in the mice bearing tumors was evaluated by a gamma counter (PerkinElmer, Waltham, MA, USA). The mice were sacrificed by carbon dioxide euthanasia at 1, 4, 24, and 48 h after administration. The blood, tumor, and normal organ/tissue were collected, and the uptake of radioactivity was measured by a gamma counter. The distribution data obtained using radioactivity count methods are plotted as %ID/g."}, "[2]": {"system": "bone metastasis of LNCaP/Luc prostate cancer", "assay": "Therapeutic efficacy in mice with bone metastasis of LNCaP/Luc prostate cancer", "type": "in vivo, mouse", "conditions": "for median survival time: tail vein, day 0, control 26 days; for lifespan increase: vs control", "description": "Therapeutic response monitoring was performed using bioluminescence imaging on days 3, 7, 15, and 30. […] The survival curves presented in Figure 6C further highlight the therapeutic effect. The median survival time for the control group (receiving normal saline) was 26 days, whereas mice treated with 1mCi (37 MBq) and 3mCi (111 MBq) of ^177Lu-PSMA-617 had median survival times of 34 days (p = 0.01) and 40 days (p = 0.02), respectively.\nThe mice were intratibially injected with LNCaP/Luc cells. After 45 days of tumor-implantation, the mice were assigned to three groups, including the saline control (n = 6), a low dose of ^177Lu-PSMA-617 (n = 8), and a high dose of ^177Lu-PSMA-617 (n = 9). The mice were administered via the tail vein with equivalent to 1mCi (37 MBq) and 3mCi (111 MBq) of ^177Lu-PSMA-617 on day 0. Body weight changes were measured during observation days. The death of mice was recorded for the survival curve by the Kaplan–Meier method. A humane endpoint was defined as a decrease in body weight of 20% or more compared with the body weight measured on the day of tumor inoculation. The survival rate of all groups was analyzed by the log-rank test, and p < 0.05 was considered significant difference. The median survival time was presented in efficacy studies. The median survival time was calculated as the smallest survival time for which the survivor function is less than or equal to 0.5. The therapeutic responses were monitored by bioluminescence imaging during observation days. The BNL/Luc tumor of mice was imaged and measured using the IVIS Imaging system and Living Imaging software (Xenogen, Alameda, CA, USA; available at https://www.perkinelmer.com) on days 3, 7, 15, and 30."}},
  "data": [
    {"smiles": "O=C([O-])CN1CCN(CC(=O)[O-])CCN(CC(=O)NCC2CCC(C(=O)N[C@@H](Cc3ccc4ccccc4c3)C(=O)NCCCC[C@H](NC(=O)N[C@@H](CCC(=O)O)C(=O)O)C(=O)O)CC2)CCN(CC(=O)[O-])CC1.[177Lu+3]", "note": "(stereo partly drawn) [^177Lu-PSMA-617]", "values": [
      {"measurement": "internalization", "setting": "PSMA-negative PC-3 cells", "result": "< 0.1", "unit": "% IA/10^6 cells"},
      {"measurement": "surface binding", "setting": "PSMA-negative PC-3 cells", "result": "≤ 1.7", "unit": "% IA/10^6 cells"},
      {"measurement": "tumor-to-blood ratio", "setting": "[1]; 1 h post-injection", "result": 69.5},
      {"measurement": "tumor-to-kidney ratio", "setting": "[1]; 1 h post-injection", "result": 0.3},
      {"measurement": "tumor-to-muscle ratio", "setting": "[1]; 1 h post-injection", "result": 60.2},
      {"measurement": "uptake in kidneys", "setting": "[1]; 1 h post-injection, i.v., ~37 MBq", "result": "43.83 ± 3.41", "unit": "%IA/g"},
      {"measurement": "uptake in LNCaP tumors", "setting": "[1]; 4 h post-injection, i.v., ~37 MBq", "result": "23.31 ± 0.94", "unit": "%IA/g"},
      {"measurement": "tumor-to-blood ratio", "setting": "[1]; 24 h post-injection (maximum)", "result": 434.4},
      {"measurement": "tumor-to-muscle ratio", "setting": "[1]; 24 h post-injection (peak)", "result": 857.4},
      {"measurement": "uptake in LNCaP tumors", "setting": "[1]; 24 h post-injection, i.v., ~37 MBq", "result": "12.88 ± 0.55", "unit": "%IA/g"},
      {"measurement": "tumor-to-kidney ratio", "setting": "[1]; 48 h post-injection (maximum)", "result": 26.3},
      {"measurement": "uptake in liver, lungs and spleen", "setting": "[1]; i.v., ~37 MBq", "result": "low uptake"},
      {"measurement": "urinary clearance", "setting": "[1]; within 24 h", "result": "> 90", "unit": "%"},
      {"measurement": "median survival time", "setting": "[2]; 1mCi (37 MBq), p = 0.01", "result": 34, "unit": "days"},
      {"measurement": "lifespan increase", "setting": "[2]; 1mCi (37 MBq)", "result": 30.7, "unit": "%"},
      {"measurement": "median survival time", "setting": "[2]; 3mCi (111 MBq), p = 0.02", "result": 40, "unit": "days"},
      {"measurement": "lifespan increase", "setting": "[2]; 3mCi (111 MBq)", "result": 53.8, "unit": "%"},
      {"measurement": "bioluminescence signal intensity vs controls", "setting": "[2]; days 3, 7, 15 and 30 after treatment", "result": "significantly lower signal intensities"}
    ]}
  ]
}
